Reference: ChEMBL document CHEMBL5550184, “Structure-activity relationships of middle-size cyclic peptides, KRAS inhibitors derived from an mRNA display” (Bioorg Med Chem, 2024)
Positions of bridges follow the written chain, without caps; N, C: chain ends. Non-standard residues stand in square brackets, D forms with d. Residues, ends and D or L forms follow the SMILES beside them. *: point of attachment. hPhe(3-Cl-4-CF3) = N[C@@H](CCc1ccc(C(F)(F)F)c(Cl)c1)C(=O)O; NMeGly(cPent) = CN[C@H](C(=O)O)C1CCCC1; NMeCha = CN[C@@H](CC1CCCCC1)C(=O)O; NMeChg = CN[C@H](C(=O)O)C1CCCCC1; NMeD = CN[C@@H](CC(=O)O)C(=O)O; NMeL = CN[C@@H](CC(C)C)C(=O)O; NMehSer = CN[C@@H](CCO)C(=O)O; Morpholide = C1CN(*)CCO1; NMeA = CN[C@@H](C)C(=O)O; Piperidide = C1CCN(*)CC1; Ac5c = NC1(C(=O)O)CCCC1; Aze = O=C(O)[C@@H]1CCN1; Sar = CNCC(=O)O

Columns and labels:
[1] = AUCinfinity in BALB/c nude mouse at 20 mg/kg, po measured upto 24 hrs by LC-MS/MS analysis; type: ADME, organism-based; settings: in vivo
[2] = Half-life in BALB/c nude mouse at 1 mg/kg, iv measured upto 24 hrs by LC-MS/MS analysis; type: ADME, organism-based; settings: in vivo
[3] = Volume of distribution at steady state in Wistar Hannover rat at 1 mg/kg, iv measured upto 24 hrs by LC-MS/MS analysis; type: ADME, organism-based; settings: in vivo
[4] = AUCinfinity in Cynomolgus monkey at 0.167 mg/kg, iv measured upto 24 hrs by LC-MS/MS analysis; type: ADME, organism-based, Macaca fascicularis; settings: in vivo
[5] = Volume of distribution at steady state in Cynomolgus monkey at 0.167 mg/kg, iv measured upto 24 hrs by LC-MS/MS analysis; type: ADME, organism-based, Macaca fascicularis; settings: in vivo, read-out: Vdss
[6] = AUCinfinity in BALB/c nude mouse at 1 mg/kg, iv measured upto 24 hrs by LC-MS/MS analysis; type: ADME, organism-based; settings: in vivo
[7] = Oral bioavailability in Cynomolgus monkey at 15 mg/kg measured upto 48 hrs by LC-MS/MS analysis; type: ADME, organism-based, Macaca fascicularis; settings: in vivo
[8] = Clearance in Cynomolgus monkey at 0.167 mg/kg, iv measured upto 24 hrs by LC-MS/MS analysis; type: ADME, organism-based, Macaca fascicularis; settings: in vivo
[9] = Apparent permeability in human Caco-2 cells incubated for 180 mins by LC-MS/MS method; type: ADME, cell-based
[10] = Half-life in BALB/c nude mouse at 20 mg/kg, po measured upto 24 hrs by LC-MS/MS analysis; type: ADME, organism-based; settings: in vivo
[11] = Volume of distribution at steady state in BALB/c nude mouse at 1 mg/kg, iv measured upto 24 hrs by LC-MS/MS analysis; type: ADME, organism-based; settings: in vivo, read-out: Vdss
[12] = Metabolic stability in monkey liver microsomes assessed as intrinsic clearance per mg protein at 0.2 uM measured upto 30 mins by LC-MS/MS analysis; type: ADME, Macaca mulatta, Microsome; settings: rhesus monkey, read-out: CLH
[13] = Clearance in BALB/c nude mouse at 1 mg/kg, iv measured upto 24 hrs by LC-MS/MS analysis; type: ADME, organism-based; settings: in vivo
[14] = AUCinfinity in Cynomolgus monkey at 15 mg/kg, po measured upto 48 hrs by LC-MS/MS analysis; type: ADME, organism-based, Macaca fascicularis; settings: in vivo
[15] = Half-life in Wistar Hannover rat at 1 mg/kg, iv measured upto 24 hrs by LC-MS/MS analysis; type: ADME, organism-based; settings: in vivo
[16] = system: ASPC1; assay: Cytotoxicity against human AsPC1 cells assessed as reduction in cell viability incubated for 7 days by CellTiterGlo Luminescent Cell Viability Assay; type: functional, cell-based; settings: ASPC1, 168 h
[17] = Half-life in Cynomolgus monkey at 0.167 mg/kg, iv measured upto 24 hrs by LC-MS/MS analysis; type: ADME, organism-based, Macaca fascicularis; settings: in vivo
[18] = Half-life in Wistar Hannover rat at 10 mg/kg, po measured upto 48 hrs by LC-MS/MS analysis; type: ADME, organism-based; settings: in vivo
[19] = Metabolic stability in mouse liver microsomes assessed as intrinsic clearance per mg protein at 0.2 uM measured upto 30 mins by LC-MS/MS analysis; type: ADME, Microsome; settings: read-out: CLH
[20] = AUCinfinity in Wistar Hannover rat at 10 mg/kg, po measured upto 48 hrs by LC-MS/MS analysis; type: ADME, organism-based; settings: in vivo
[21] = Half-life in Cynomolgus monkey at 15 mg/kg, po measured upto 48 hrs by LC-MS/MS analysis; type: ADME, organism-based, Macaca fascicularis; settings: in vivo
[22] = AUCinfinity in Wistar Hannover rat at 1 mg/kg, iv measured upto 24 hrs by LC-MS/MS analysis; type: ADME, organism-based; settings: in vivo
[23] = Metabolic stability in rat liver microsomes assessed as intrinsic clearance per mg protein at 0.2 uM measured upto 30 mins by LC-MS/MS analysis; type: ADME, Microsome; settings: read-out: CLH
[24] = target: GTPase KRas (Homo sapiens, UniProt P01116, G12D); assay: Binding affinity to biotinylated KRAS G12D mutant (unknown origin) incubated for 120 mins by SPR analysis
GTPase KRas, sequence (P01116 whole entry G12D): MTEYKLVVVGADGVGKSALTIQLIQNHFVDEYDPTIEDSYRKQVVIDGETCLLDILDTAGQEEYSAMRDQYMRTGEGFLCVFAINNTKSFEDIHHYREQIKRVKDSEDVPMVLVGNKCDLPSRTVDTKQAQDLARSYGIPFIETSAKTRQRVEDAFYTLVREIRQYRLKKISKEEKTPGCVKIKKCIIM

[25] = Inhibition of biotin-tagged KRAS G12D mutant (unknown origin) to recombinant His-tagged SOS1 (unknown origin) protein-protein interaction incubated for 120 mins by AlphaLISA method; parameters: species or system Homo sapiens
[26] = Oral bioavailability in BALB/c nude mouse at 20 mg/kg measured upto 24 hrs by LC-MS/MS analysis; type: ADME, organism-based; settings: in vivo
[27] = Oral bioavailability in Wistar Hannover rat at 10 mg/kg measured upto 48 hrs by LC-MS/MS analysis; type: ADME, organism-based; settings: in vivo
[28] = Clearance in Wistar Hannover rat at 1 mg/kg, iv measured upto 24 hrs by LC-MS/MS analysis; type: ADME, organism-based; settings: in vivo
[29] = Metabolic stability in human liver microsomes assessed as intrinsic clearance per mg protein at 0.2 uM measured upto 30 mins by LC-MS/MS analysis; type: ADME, Microsome; settings: read-out: CLH
[30] = AUCinfinity in Cynomolgus monkey at 10 mg/kg, po measured upto 48 hrs by LC-MS/MS analysis; type: ADME, organism-based, Macaca fascicularis; settings: in vivo
[31] = Half-life in Cynomolgus monkey at 0.168 mg/kg, iv measured upto 24 hrs by LC-MS/MS analysis; type: ADME, organism-based, Macaca fascicularis; settings: in vivo
[32] = Oral bioavailability in Cynomolgus monkey at 10 mg/kg measured upto 24 hrs by LC-MS/MS analysis; type: ADME, organism-based, Macaca fascicularis; settings: in vivo
[33] = Volume of distribution at steady state in Cynomolgus monkey at 0.168 mg/kg, iv measured upto 24 hrs by LC-MS/MS analysis; type: ADME, organism-based, Macaca fascicularis; settings: in vivo, read-out: Vdss
[34] = Half-life in Cynomolgus monkey at 10 mg/kg, po measured upto 48 hrs by LC-MS/MS analysis; type: ADME, organism-based, Macaca fascicularis; settings: in vivo
[35] = Clearance in Cynomolgus monkey at 0.168 mg/kg, iv measured upto 24 hrs by LC-MS/MS analysis; type: ADME, organism-based, Macaca fascicularis; settings: in vivo
[36] = AUCinfinity in Cynomolgus monkey at 0.168 mg/kg, iv measured upto 24 hrs by LC-MS/MS analysis; type: ADME, organism-based, Macaca fascicularis; settings: in vivo
[37] = system: GTPase KRas (Homo sapiens), P01116 [G12D]; assay: Binding affinity to biotinylated KRAS G12D mutant (unknown origin) assessed as Kon incubated for 120 mins by SPR analysis
GTPase KRas (Homo sapiens), P01116 [G12D], sequence (P01116 whole entry G12D, looked up): as the sequence (P01116 whole entry G12D) above

[38] = system: GTPase KRas (Homo sapiens), P01116 [G12D]; assay: Binding affinity to biotinylated KRAS G12D mutant (unknown origin) assessed as Koff incubated for 120 mins by SPR analysis

half-life [2] | Papp at 3 h [9] | half-life [10] | Vd [11] | microsomal CLint at 0.2 µM [12] | clearance [13] | half-life [18] | microsomal CLint at 0.2 µM [19] | AUC(0-inf) [20] | AUC(0-inf) [22] | microsomal CLint at 0.2 µM [23] | Kd [24] | IC50 [25] | bioavailability [27] | microsomal CLint at 0.2 µM [29] | Compound | IC50 [16] | further results
5.98 h | 1.74 ×10⁻⁶ cm/s | 4.16 h | 3 L/kg | 43 µL/min/mg | 12.4 mL/min/kg | 3.96 h | 27 µL/min/mg | 3520 ng·h/mL | 2140 ng·h/mL | 28 µL/min/mg | 0.18 nM | < 2 nM | 21% | 26 µL/min/mg | CC[C@H](C)[C@@H]1NC(=O)[C@H](CC(C)C)N(C)C(=O)C[C@@H](C(=O)N2CCOCC2)N(C)C(=O)[C@H](C2CCCC2)N(C)C(=O)C2(CCCC2)NC(=O)[C@@H]2CCCN2C(=O)[C@H](CCc2ccc(C(F)(F)F)c(Cl)c2)NC(=O)CN(C)C(=O)[C@H](CC2CCCCC2)N(C)C(=O)[C@@H]2CCN2C(=O)[C@H](C)N(C)C1=O ([NMeL]I[NMeA][Aze][NMeCha][Sar][hPhe(3-Cl-4-CF3)]P[Ac5c][NMeGly(cPent)][NMeD]-Morpholide; lactam N-11) | 4.8 nM | AUC(0-inf) ([1]; BALB/c nude): 3880 ng·h/mL; Vd ([3]; Wistar Hannover, read-out: Vdss): 0.82 L/kg; AUC [4]: 673 ng·h/mL; Vd [5]: 0.37 L/kg; AUC(0-inf) ([6]; BALB/c nude): 1350 ng·h/mL; F [7]: 7.2%; clearance [8]: 4.3 mL/min/kg; AUC [14]: 12500 ng·h/mL; half-life ([15]; Wistar Hannover): 5.57 h; half-life [17]: 8.14 h; half-life [21]: 7.71 h; bioavailability ([26]; BALB/c nude): 14%; clearance [28]: 7.81 mL/min/kg
8.62 h | 0.61 ×10⁻⁶ cm/s | 6.46 h | 0.85 L/kg | 32 µL/min/mg | 5.9 mL/min/kg | 3.95 h | 24 µL/min/mg | 5770 ng·h/mL | 7970 ng·h/mL | 28 µL/min/mg | 0.47 nM | < 2 nM | 5.7% | 18 µL/min/mg | CC[C@H](C)[C@@H]1NC(=O)[C@H](CC(C)C)N(C)C(=O)C[C@@H](C(=O)N2CCCCC2)N(C)C(=O)[C@H](C2CCCC2)N(C)C(=O)C2(CCCC2)NC(=O)[C@@H]2CCCN2C(=O)[C@H](CCc2ccc(C(F)(F)F)c(Cl)c2)NC(=O)CN(C)C(=O)[C@H](CC2CCCCC2)N(C)C(=O)[C@@H]2CCN2C(=O)[C@H](C)N(C)C1=O ([NMeL]I[NMeA][Aze][NMeCha][Sar][hPhe(3-Cl-4-CF3)]P[Ac5c][NMeGly(cPent)][NMeD]-Piperidide; lactam N-11) | 18 nM | AUC(0-inf) [30]: 10700 ng·h/mL; AUC ([1]; po, 20 mg/kg, 24 h): 3270 ng·h/mL; Vdss ([3]; iv, 1 mg/kg, 24 h): 2.6 L/kg; AUC ([6]; iv, 1 mg/kg, 24 h): 2860 ng·h/mL; half-life [31]: 7.3 h; bioavailability [32]: 11%; Vd [33]: 0.49 L/kg; t1/2 ([15]; iv, 1 mg/kg, 24 h): 6.23 h; half-life [34]: 8.65 h; clearance [35]: 1.81 mL/min/kg; F ([26]; po, 20 mg/kg, 24 h): 16%; AUC(0-inf) [36]: 1590 ng·h/mL
 | 0.39 ×10⁻⁶ cm/s |  |  |  |  |  |  |  |  |  | 0.17 nM | < 2 nM |  |  | CC[C@H](C)[C@@H]1NC(=O)[C@H](CCO)N(C)C(=O)C[C@@H](C(=O)N2CCCCC2)N(C)C(=O)[C@H](C2CCCCC2)N(C)C(=O)C2(CCCC2)NC(=O)[C@@H]2CCCN2C(=O)[C@H](CCc2ccc(C(F)(F)F)c(Cl)c2)NC(=O)CN(C)C(=O)[C@H](CC2CCCCC2)N(C)C(=O)CN(C)C(=O)CN(C)C1=O ([NMehSer]I[Sar][Sar][NMeCha][Sar][hPhe(3-Cl-4-CF3)]P[Ac5c][NMeChg][NMeD]-Piperidide; lactam N-11) | 63 nM | K [37]: 1.2 10^6/Ms; K [38]: 2.2 10^-4/s
